“And” between values parts separate entries of the source, which are not always exact repeats. Equal values may be shown once.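 A five-concentration, 48-hour dose response in 96-well plates underlies each endpoint, interpolated linearly between surrounding concentrations. Abbreviation: GI50, concentration required for 50% inhibition of growth. TGI is the concentration that stops growth completely.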
Experiments:
Assay in all cases: DTP human tumour cell line panel, 48 h
[1] = tested on: COLO 205 colon
[2] = tested on: HCC-2998 colon
[3] = tested on: HOP-92 NSCLC
[4] = tested on: KM12 colon
[5] = tested on: NCI-H23 lung
[6] = tested on: NCI-H522 lung
[7] = tested on: SF-539 CNS
[8] = tested on: SK-OV-3 ovarian
[9] = tested on: SN12C renal
[10] = tested on: U251 CNS

SMILES | GI50 [1] | TGI [1] | GI50 [2] | TGI [2] | GI50 [3] | TGI [3] | GI50 [4] | TGI [4] | GI50 [5] | TGI [5] | GI50 [6] | GI50 [7] | TGI [7] | TGI [8] | GI50 [9] | TGI [9] | GI50 [10] | TGI [10] | TGI [6] | GI50 [8]
COc1cc2c3c(n(CCCOC(=O)C(F)(F)F)c(=O)c2cc1OC)-c1cc2c(cc1C3=O)OCO2 | 0.519 µM | > 100 µM | 0.131 µM | 0.539 µM | 0.122 µM | 33.4 µM | 0.0296 µM | 14.6 µM | < 0.0158 µM | < 0.045 µM | 0.0167 µM | < 0.01 µM | 0.0699 µM | > 100 µM | < 0.01 µM | 0.0272 µM | < 0.01 µM | 1.07 µM | – | –
CN(CCO)c1ccc(N2Cc3ccccc3OC3=C2C(=O)c2c(O)ccc(O)c2C3=O)cn1 | 0.133 µM | 0.302 µM | 0.249 µM | 0.608 µM | 0.223 µM | 0.505 µM | 0.387 µM | 1.63 µM | 0.263 µM | 0.834 µM | 0.0323 µM | 0.214 µM | 0.524 µM | 8.65 µM | 0.165 µM | 0.355 µM | 0.284 µM | 0.82 µM | 0.116 µM | 2.24 µM
OCc1ccn2c1[C@@H](O)CC2 | – | > 100 µM | – | > 100 µM | – | > 100 µM | – | > 100 µM | – | > 100 µM | – | – | > 100 µM | > 100 µM | – | > 100 µM | – | > 100 µM | > 100 µM | –
C=C1C(=O)O[C@H]2[C@H]1CC/C(COC(=O)/C=C\C(=O)NCc1ccc(Cn3c(=O)sn(CCCC)c3=O)cc1)=C\CC[C@@]1(C)O[C@@H]21 | 0.581 µM | 2.37 µM | 1.64 µM | 3.19 µM | 0.655 µM | 2.04 µM | 1.67 µM | 3.8 µM | 1.4 µM | 2.89 µM | 0.315 µM | 1.18 µM | 2.42 µM | 8.55 µM | 0.865 µM | 2.25 µM | 1.43 µM | 3.2 µM | 1.27 µM | 3.33 µM
CC(=O)Oc1ccccc1C(=O)Nc1ncc([N+](=O)[O-])s1 | 1.83 µM | – | 2.03 µM | 13.9 µM and > 100 µM | 0.227 µM | 0.966 µM and 8.1 µM | 3 µM | – | 1.8 µM | 6.39 µM and > 63 µM | 1.63 µM | 2.9 µM | 20.6 µM and > 100 µM | > 80.3 µM | 1.87 µM | 21.2 µM and 90.9 µM | 1.38 µM | 20.7 µM and > 100 µM | 6.2 µM and 21.7 µM | 3.2 µM
COC(=O)/C=C/c1c(CC=C(C)C)ncn1C | – | > 100 µM | – | > 100 µM | – | > 100 µM | – | > 100 µM | – | > 100 µM | – | – | 62.2 µM | > 100 µM | – | > 100 µM | – | > 67.1 µM | > 100 µM | –
Cc1c(/C=N/NC(=O)c2ccc(Cl)cc2)c(=O)n(-c2ccccc2)n1C | – | > 100 µM | – | > 100 µM | – | > 100 µM | – | > 100 µM | – | > 100 µM | – | – | > 100 µM | > 100 µM | – | > 100 µM | – | > 100 µM | > 100 µM | –
N#CC1=C(N)Oc2cc(O)ccc2C1c1cccc2ccccc12 (stereo unspecified) | 16.5 µM | 38.2 µM | 3 µM | 13.9 µM | 3.78 µM | 23.7 µM | 6.68 µM | > 100 µM | 10.2 µM | 22.6 µM | 6.08 µM | 16.5 µM | 36.5 µM | 42.9 µM | 20.4 µM | 58.3 µM | 16.6 µM | 43 µM | 19.7 µM | 18.1 µM
O=C1NC(=O)/C(=C\c2ccccc2)C2=C1CCCC2 | 3.86 µM | 14.6 µM | 7.46 µM | 14 µM | 15.9 µM | 38.2 µM | 9.21 µM | 22 µM | 2.63 µM | 8.33 µM | 13.7 µM | 11.6 µM | 24.1 µM | 27.8 µM | 3.03 µM | 11 µM | 4.82 µM | 16.2 µM | 32.1 µM | 14.6 µM
COCC1(CO)C(=O)C2CCN1CC2 (stereo unspecified) | 16.8 µM | 35.8 µM | > 100 µM | > 100 µM | 14.8 µM | 30 µM | > 100 µM | > 100 µM | 19.7 µM | 46 µM | 4.28 µM | > 40.7 µM | > 55.7 µM | > 80.9 µM | 16.1 µM | 31.1 µM | > 71 µM | > 100 µM | 11.7 µM | > 51 µM
COC1(OC)CC2C(=O)N(Cc3ccccc3)C1C=C2S(=O)(=O)c1ccccc1 (stereo unspecified) | – | 22 µM | – | 33.6 µM | – | 54.1 µM | – | 31.6 µM | – | 38.1 µM | – | – | 32.7 µM | > 100 µM | – | 30.1 µM | – | 29 µM | 27.7 µM | –
O=C(CSC1CCc2ccccc21)N/N=C/c1ccccc1O (stereo unspecified) | 5.87 µM | > 100 µM | 5.59 µM | 35.4 µM | 2.61 µM | 37.5 µM | 3.73 µM | 23.7 µM | 9.83 µM | > 100 µM | 4.98 µM | 3.03 µM | 17.2 µM | > 100 µM | 4.67 µM | 67.4 µM | 2.92 µM | 42.5 µM | 26.4 µM | 11.5 µM
